Results taken from US20250161264A1, “(AMPAR-PAM)-NMDA RECEPTOR ANTAGONIST COMBINATION THERAPY FOR TREATMENT OF MENTAL CONDITIONS AND DISORDERS” (Gilgamesh Pharmaceuticals, Inc., priority 2022, published 2025).

How the values were obtained:
Male Sprague Dawley rats = assay: Rat forced swim test (FST); format: in vivo; conditions: Example 3; Compound 18R 1, 3.2 or 10 mg/kg s.c., second injection vehicle or BIIB-104 0.03 mg/kg; 23.5 h before Swim 2
Procedure: Animals. Male Sprague Dawley rats, aged 8-10 weeks, are used in the experiments. Animals are housed in groups of 2 under controlled temperature (22±3° C.) and relative humidity (30-70%) conditions, with 12-hour light/dark cycles, and with ad libitum food and water. All efforts are made to minimize suffering.
Drugs and Drug Administration. Test compounds, vehicle, and the positive control desipramine are administered subcutaneously (s.c.), with doses calculated based on the free base. A pharmacologically inert vehicle is used. All compounds are administered at a volume of 5 mL/kg. Test compounds (in each case, an AMPAR-PAM+an NMDAR-ant together, or either compound alone) and vehicle are administered 0.5 h after the start of the training swim (Swim 1) and 23.5 h before the test swim (Swim 2). Desipramine is administered 3 times, at 23.5 h, 5 h, and 1 h before the test swim (Swim 2), each time at a dose of 20 mg/kg.
Forced Swim Test (FST). […] Group size is N=10 per treatment. […]
Behavioral scoring is conducted by observers who are blind to the treatment groups. Animals are continuously observed during Swim 2 and the total time spent engaging in the following behaviors is recorded: immobile, swimming, and climbing. […]
Drugs and Drug Administration. Test compounds, vehicle, and the positive control desipramine are administered subcutaneously (s.c.), with doses calculated based on the free base. […]

Male C57BL/6 mice [1] = assay: Accelerating rotarod; format: in vivo, mouse; conditions: Compound 18R 3.2, 10 or 32 mg/kg s.c.; BIIB-104 0.03 mg/kg s.c. 0-30 min prior; 5 min and 30 min after second injection
Procedure: Animals. Male C57BL/6 mice (8-10 weeks old) are housed in groups of >2 under standard environmentally controlled conditions (22 to 24° C.; relative humidity of 30 to 70%) with a standard 12-h light cycle. Food and water are available ad libitum.
(§1) Drugs and Drug Administration. Test compounds and vehicle are administered subcutaneously (s.c.), with doses calculated based on the free base. A pharmacologically inert vehicle is used. All compounds are administered at a volume of 10 mL/kg. Test compounds (in each case, BIIB-104+Compound 18R together, or either compound alone) and vehicle are administered as described below.
Rotarod Procedure. Mice will be trained to stay on a rotating bar (‘rotarod’) on days −4 and −2 by being placed on a bar rotating at 4 rpm for 3 min for 3 sessions separated by ˜10 min. On days −1 and 0, this will be repeated using a faster speed of 15 rpm. Mice that have a fall latency <80 s during training will be omitted from the study. On day 1, mice will be administered (s.c.) vehicle or BIIB-104 (0.03 mg/kg) 0-30 min prior to vehicle or Compound 18R (3.2, 10, or 32 mg/kg), for a total of 8 groups of n=10-12/group. Five min after the second injection, mice will be placed on the rotarod which will accelerate from 4 to 40 rpm over 300 s. The latency of mice to fall will be recorded. […]

[2] = system: Male Wistar Han or Wistar Kyoto rats; assay: Elevated plus maze (EPM) in CMS rats; format: in vivo, rat; conditions: stressed rats; third week of drug testing (typically day 16); 5-min test
Procedure: (§2) Animals. Male Wistar Han or Wistar Kyoto rats (Charles River, Sulzfeld, Germany) are brought into the laboratory at the age of 5 weeks (around 100 g), approximately one month before the start of the experiment. Except for the first 10 days after arrival, when the animals are housed in groups of 10, they are singly housed with food and water freely available, and maintained on a 12-h light/dark cycle in constant temperature (22±2° C.) and humidity (45±5%) conditions.
Drugs and Drug Administration. Test compounds or vehicle are administered subcutaneously (s.c.), with doses calculated based on the free base. A pharmacologically inert vehicle (e.g., saline) is used. […]
(§3) After sucrose intake has been measured, rats are dosed with BIIB-104 or vehicle once daily for up to 4 weeks (Table 1).
Elevated Plus Maze (EPM), Animals are tested in two non-transparent boxes, which consist of two open (50×11×40 cm) and two closed (50×11×40 cm) arms. […] The animals are placed in the center of the apparatus and the time spent in each arm, and number of entries into open and closed arms are recorded during a 5-min test.
All rats (all groups in Table 1) are assessed in the EPM in the third week of drug testing (typically day 16). Stressed vehicle-treated rats (S1) have higher levels of anxiety measured by a lower % time spent in open arms compared to control vehicle-treated rats (C1). […]

[3] = system: Male Wistar Han or Wistar Kyoto rats; assay: Novel object recognition (NOR) test in CMS rats; format: in vivo, rat; conditions: stressed rats; third week of drug testing (typically day 17)
Procedure: as §2
Drugs and Drug Administration. Test compounds or vehicle are administered subcutaneously (s.c.), with doses calculated based on the free base. A pharmacologically inert vehicle (e.g., saline) is used. All compounds are administered at a volume of 2 mL/kg. […]
as §3
Novel Object Recognition (NOR) Test. […] Rats are returned to the open field and the duration of exploration of each object is recorded in a 5-min test. A recognition index is calculated according to the formula: time of novel object exploration minus time of familiar object exploration, divided by total exploration time (novel plus familiar objects). During NOR sessions, the number of line crossings is recorded as a measure of locomotor activity.
All rats (all groups in Table 1) are assessed in the NOR in the third week of drug testing (typically day 17). […]

[4] = system: Male Wistar Han or Wistar Kyoto rats; assay: Chronic mild stress (CMS) procedure, sucrose intake; format: in vivo, rat; conditions: stressed rats
Procedure: as §2
Drugs and Drug Administration. Test compounds or vehicle are administered subcutaneously (s.c.), with doses calculated based on the free base. A pharmacologically inert vehicle (e.g., saline) is used. All compounds are administered at a volume of 2 mL/kg. Test compounds (in each case, BIIB-104+Compound 18R together, or either compound alone) and vehicle are administered as described below.
Chronic Mild Stress (CMS) Procedure and Sucrose Preference. Male rats (250-350 g) are habituated to drinking 1% sucrose to establish a stable level of sucrose intake. […]
as §3
Sucrose intake is measured once per week, in each case before drug administration for that day (˜24 h after the previous drug administration). […]

Male C57BL/6 mice [5] = assay: Visual discrimination task; format: in vivo, mouse; conditions: Compound 18R 10, 32 or 100 mg/kg s.c.; BIIB-104 0.03 mg/kg s.c. 0-30 min prior
Procedure: Animals Male C57BL/6 mice (8-10 weeks old) are housed in groups of >2 under standard environmentally controlled conditions (22 to 24° C.; relative humidity of 30 to 70%) with a standard 12-h light cycle. Five days prior to the start of operant conditioning experiments, all subjects are placed on a food restriction diet designed to maintain a stable 80-85% of free feeding weight.
as §1, with “below. Mice are tested in a randomized cross-over design such that different compound combinations are tested in the same mice and a sample size of n=8-12/group is achieved. Compound testing sessions are separated by at least 3 days.” for “below.”
Visual Discrimination Procedure. A cohort of mice is trained to perform the visual discrimination task according to published methods (Dillon et al., 2009, Behavioural Brain Research 204, 67-76). The testing apparatus is a standard operant chamber (Med Associates, St Albans, VT). […]

## CN[C@@]1(c2ccc(F)cc2)CCCCC1=O [Compound 18R]
Male Sprague Dawley rats
  immobility time: dose-dependent decrease in immobility time
Male C57BL/6 mice [1]
  latency to fall off the rotarod: dose-dependently reduces the latency of mice to fall
[2]
  time spent in open arms: greater time in the open arms than stressed vehicle-treated rats (S1), but less time than unstressed vehicle-treated rats (C1)
[3]
  preference for the novel object (recognition index): limited preference for exploring the novel object
[4]; vs vehicle-treated stressed rats, Compound 18R 1.5 mg/kg i.p. day 1, 24 h later
  sucrose intake: increase in sucrose intake
[4]; Compound 18R day 1, then vehicle (S2) or BIIB-104 0.03 mg/kg s.c. (S4) daily days 2-28
  durability of the effect on sucrose intake: 1-2 weeks
Male C57BL/6 mice [5]
  visual discrimination test accuracy: dose-dependently decreases visual discrimination test accuracy

## pesampator [BIIB-104, reference compound]
Male C57BL/6 mice [1]
  latency to fall off the rotarod: does not change latency to fall
